This note sets out measurements from patent publication US9486506B2 (Novo Nordisk A/S, priority 2011, dated 2016).

One data set deals with T1, glucagon receptor (Homo sapiens, UniProt P47871).
T1 construct: expressed in transfected cells
As to the kind of experiment: Assay (I) Glucagon activity (cAMP biosensor, FLIPR). The class given is cell-based.

Data set [1] in a line: Assay (X) Chemical stability assessment by RP-UPLC. The class given is physicochemical. The following applies: pH 8.15, 14 days at 37° C. vs 5° C., 333 μM.

Numbered stars: 1 amine (or outer) side, 2 acyl side, 3 side chain; on linkers, the order of the positions; unused ones are H or OH. Side chains are listed from the residue outwards. Peptide text beside a SMILES is read from it. * marks the point of attachment. C18 diacid = O=C(O)CCCCCCCCCCCCCCCCC(=O)*; γGlu = O=C(O)[C@H](CCC(=O)[*:2])N[*:1]; AEEA = NCCOCCOCC(=O)O

T1 sequence (P47871 26-477): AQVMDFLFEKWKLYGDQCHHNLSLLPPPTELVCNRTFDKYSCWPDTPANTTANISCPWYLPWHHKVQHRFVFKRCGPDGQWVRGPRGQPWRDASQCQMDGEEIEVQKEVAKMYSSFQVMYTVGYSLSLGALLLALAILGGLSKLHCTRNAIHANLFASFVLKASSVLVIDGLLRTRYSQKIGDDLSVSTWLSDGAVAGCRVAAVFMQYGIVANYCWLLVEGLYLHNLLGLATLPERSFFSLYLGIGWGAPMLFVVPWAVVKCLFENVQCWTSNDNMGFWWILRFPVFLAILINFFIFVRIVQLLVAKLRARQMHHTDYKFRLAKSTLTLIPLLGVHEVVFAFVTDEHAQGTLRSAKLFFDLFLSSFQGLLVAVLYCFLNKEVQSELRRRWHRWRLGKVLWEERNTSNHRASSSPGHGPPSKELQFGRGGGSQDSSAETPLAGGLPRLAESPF

In turn, `CC(C)C[C@H](NC(=O)[C@H](Cc1c[nH]c2ccccc12)NC(=O)[C@H](CCCCNC(=O)CC[C@H](NC(=O)CC[C@H](NC(=O)COCCOCCNC(=O)COCCOCCNC(=O)CC[C@H](NC(=O)CCCCCCCCCCCCCCCCC(=O)O)C(=O)O)C(=O)O)C(=O)O)NC(=O)[C@@H](NC(=O)[C@H](Cc1ccccc1)NC(=O)[C@H](CC(=O)O)NC(=O)[C@H](CCC(N)=O)NC(=O)[C@H](C)NC(=O)[C@H](CCCNC(=N)N)NC(=O)[C@H](CCCNC(=N)N)NC(=O)[C@@H](NC(=O)[C@H](CC(=O)O)NC(=O)[C@H](CC(C)C)NC(=O)[C@H](Cc1ccc(O)cc1)NC(=O)[C@H](CCCCN)NC(=O)[C@H](CO)NC(=O)[C@H](Cc1ccc(O)cc1)NC(=O)[C@H](CC(=O)O)NC(=O)[C@H](CO)NC(=O)[C@@H](NC(=O)[C@H](Cc1ccccc1)NC(=O)[C@@H](NC(=O)CNC(=O)[C@H](CCC(N)=O)NC(=O)[C@H](CO)NC(=O)[C@@H](N)Cc1c[nH]cn1)[C@@H](C)O)[C@@H](C)O)[C@@H](C)O)C(C)C)C(=O)N[C@@H](CC(C)C)C(=O)N[C@@H](CO)C(=O)N[C@H](C(N)=O)[C@@H](C)O` [Example 39, N^ε24-[(4S)-4-carboxy-4-[[(4S)-4-carboxy-4-[[2-[2-[2-[[2-[2-[2-[[(4S)-4-carboxy-4-(17-carboxyheptadecanoylamino)butanoyl]amino]ethoxy]ethoxy]acetyl]amino]ethoxy]ethoxy]acetyl]amino]butanoyl]amino]butanoyl]-[Thr16,Lys24,Leu27,Ser28]-Glucagon amide] returned a concentration for a half-maximal effect (EC50) at glucagon receptor of 39 pM. In addition, the “Chemical stability [Purity loss/14 days 37 C.]” value in data set [1] is given as 7.8%.

The molecule `CC(C)C[C@H](NC(=O)[C@H](Cc1c[nH]c2ccccc12)NC(=O)[C@H](CCCCNC(=O)COCCOCCNC(=O)CC[C@H](NC(=O)CC[C@H](NC(=O)COCCOCCNC(=O)CC[C@H](NC(=O)CCCCCCCCCCCCCCCCC(=O)O)C(=O)O)C(=O)O)C(=O)O)NC(=O)[C@@H](NC(=O)[C@H](Cc1ccccc1)NC(=O)[C@H](CC(=O)O)NC(=O)[C@H](CCC(N)=O)NC(=O)[C@H](C)NC(=O)[C@H](CCCNC(=N)N)NC(=O)[C@H](CCCNC(=N)N)NC(=O)[C@@H](NC(=O)[C@H](CC(=O)O)NC(=O)[C@H](CC(C)C)NC(=O)[C@H](Cc1ccc(O)cc1)NC(=O)[C@H](CCCCN)NC(=O)[C@H](CO)NC(=O)[C@H](Cc1ccc(O)cc1)NC(=O)[C@H](CC(=O)O)NC(=O)[C@H](CO)NC(=O)[C@@H](NC(=O)[C@H](Cc1ccccc1)NC(=O)[C@@H](NC(=O)CNC(=O)[C@H](CCC(N)=O)NC(=O)[C@H](CO)NC(=O)[C@@H](N)Cc1c[nH]cn1)[C@@H](C)O)[C@@H](C)O)[C@@H](C)O)C(C)C)C(=O)N[C@@H](CC(C)C)C(=O)N[C@@H](CO)C(=O)N[C@H](C(=O)O)[C@@H](C)O` [Example 40, N^ε24-[2-[2-[2-[[(4S)-4-carboxy-4-[[(4S)-4-carboxy-4-[[2-[2-[2-[[(4S)-4-carboxy-4-(17-carboxyheptadecanoylamino)butanoyl]amino]ethoxy]ethoxy]acetyl]amino]butanoyl]amino]butanoyl]amino]ethoxy]ethoxy]acetyl]-[Thr16,Lys24,Leu27,Ser28]-Glucagon] registered an EC50 at glucagon receptor of 78 pM. Besides, in data set [1], the “Chemical stability [Purity loss/14 days 37 C.]” value is reported as 7.5%.

In the case of `CC(C)C[C@H](NC(=O)[C@H](Cc1ccc(O)cc1)NC(=O)[C@H](CCCCN)NC(=O)[C@H](CO)NC(=O)[C@H](Cc1ccc(O)cc1)NC(=O)[C@H](CC(=O)O)NC(=O)[C@H](CO)NC(=O)[C@@H](NC(=O)[C@H](Cc1ccccc1)NC(=O)[C@@H](NC(=O)CNC(=O)[C@H](CCC(N)=O)NC(=O)[C@H](CO)NC(=O)[C@@H](N)Cc1c[nH]cn1)[C@@H](C)O)[C@@H](C)O)C(=O)N[C@@H](CC(=O)O)C(=O)N[C@@H](CCC(=O)O)C(=O)N[C@@H](CCCNC(=N)N)C(=O)N[C@@H](CCCNC(=N)N)C(=O)N[C@@H](C)C(=O)N[C@@H](CCC(N)=O)C(=O)N[C@@H](CC(=O)O)C(=O)N[C@@H](Cc1ccccc1)C(=O)N[C@H](C(=O)N[C@@H](CCCCNC(=O)CC[C@H](NC(=O)CC[C@H](NC(=O)COCCOCCNC(=O)COCCOCCNC(=O)CC[C@H](NC(=O)CCCCCCCCCCCCCCCCC(=O)O)C(=O)O)C(=O)O)C(=O)O)C(=O)N[C@@H](Cc1c[nH]c2ccccc12)C(=O)N[C@@H](CC(C)C)C(=O)N[C@@H](CC(C)C)C(=O)N[C@@H](CO)C(=O)N[C@H](C(=O)O)[C@@H](C)O)C(C)C` [Example 41, N^ε24-[(4S)-4-carboxy-4-[[(4S)-4-carboxy-4-[[2-[2-[2-[[2-[2-[2-[[(4S)-4-carboxy-4-(17-carboxyheptadecanoylamino)butanoyl]amino]ethoxy]ethoxy]acetyl]amino]ethoxy]ethoxy]acetyl]amino]butanoyl]amino]butanoyl]-[Glu16,Lys24,Leu27,Ser28]-Glucagon], on glucagon receptor, it took 130 pM to reach a half-maximal effect (EC50). Moreover, in data set [1], the “Chemical stability [Purity loss/14 days 37 C.]” value amounted to 7.3%.

As for `CC(C)C[C@H](NC(=O)[C@H](Cc1ccc(O)cc1)NC(=O)[C@H](CCCNC(=N)N)NC(=O)[C@H](CO)NC(=O)[C@H](Cc1ccc(O)cc1)NC(=O)[C@H](CC(=O)O)NC(=O)[C@H](CO)NC(=O)[C@@H](NC(=O)[C@H](Cc1ccccc1)NC(=O)[C@@H](NC(=O)CNC(=O)[C@H](CCC(N)=O)NC(=O)[C@H](CO)NC(=O)[C@@H](N)Cc1c[nH]cn1)[C@@H](C)O)[C@@H](C)O)C(=O)N[C@@H](CC(=O)O)C(=O)N[C@@H](CCC(=O)O)C(=O)N[C@@H](CCCNC(=N)N)C(=O)N[C@@H](CCCNC(=N)N)C(=O)N[C@@H](C)C(=O)N[C@@H](CCC(N)=O)C(=O)N[C@@H](CC(=O)O)C(=O)N[C@@H](Cc1ccccc1)C(=O)N[C@H](C(=O)N[C@@H](CCCCNC(=O)CC[C@H](NC(=O)CC[C@H](NC(=O)COCCOCCNC(=O)COCCOCCNC(=O)CC[C@H](NC(=O)CCCCCCCCCCCCCCCCC(=O)O)C(=O)O)C(=O)O)C(=O)O)C(=O)N[C@@H](Cc1c[nH]c2ccccc12)C(=O)N[C@@H](CC(C)C)C(=O)N[C@@H](CC(C)C)C(=O)N[C@@H](CO)C(=O)N[C@H](C(=O)O)[C@@H](C)O)C(C)C` [Example 42, N^ε24-[(4S)-4-carboxy-4-[[(4S)-4-carboxy-4-[[2-[2-[2-[[2-[2-[2-[[(4S)-4-carboxy-4-(17-carboxyheptadecanoylamino)butanoyl]amino]ethoxy]ethoxy]acetyl]amino]ethoxy]ethoxy]acetyl]amino]butanoyl]amino]butanoyl]-[Arg12,Glu16,Lys24,Leu27,Ser28]-Glucagon] (H-HSQGTFTSDYSRYLDERRAQDFVK([γGlu-γGlu-AEEA-AEEA-γGlu-C18 diacid])WLLST-OH), the EC50 on glucagon receptor came out at 153 pM. Besides, in data set [1], the “Chemical stability [Purity loss/14 days 37 C.]” value is listed as 7.2%.

Turning to `CC(C)C[C@H](NC(=O)[C@H](Cc1ccc(O)cc1)NC(=O)[C@H](CCCCN)NC(=O)[C@H](CO)NC(=O)[C@H](Cc1ccc(O)cc1)NC(=O)[C@H](CC(=O)O)NC(=O)[C@H](CO)NC(=O)[C@@H](NC(=O)[C@H](Cc1ccccc1)NC(=O)[C@@H](NC(=O)CNC(=O)[C@H](CCC(N)=O)NC(=O)[C@H](CO)NC(=O)[C@@H](N)Cc1c[nH]cn1)[C@@H](C)O)[C@@H](C)O)C(=O)N[C@@H](CC(=O)O)C(=O)N[C@@H](C)C(=O)N[C@@H](CCCNC(=N)N)C(=O)N[C@@H](CCCNC(=N)N)C(=O)N[C@@H](C)C(=O)N[C@@H](CCC(N)=O)C(=O)N[C@@H](CC(=O)O)C(=O)N[C@@H](Cc1ccccc1)C(=O)N[C@H](C(=O)N[C@@H](CCCCNC(=O)CC[C@H](NC(=O)CC[C@H](NC(=O)COCCOCCNC(=O)COCCOCCNC(=O)CC[C@H](NC(=O)CCCCCCCCCCCCCCCCC(=O)O)C(=O)O)C(=O)O)C(=O)O)C(=O)N[C@@H](Cc1c[nH]c2ccccc12)C(=O)N[C@@H](CC(C)C)C(=O)N[C@@H](CC(C)C)C(=O)N[C@@H](CO)C(=O)N[C@H](C(=O)O)[C@@H](C)O)C(C)C` [Example 43, N^ε24-[(4S)-4-carboxy-4-[[(4S)-4-carboxy-4-[[2-[2-[2-[[2-[2-[2-[[(4S)-4-carboxy-4-(17-carboxyheptadecanoylamino)butanoyl]amino]ethoxy]ethoxy]acetyl]amino]ethoxy]ethoxy]acetyl]amino]butanoyl]amino]butanoyl]-[Ala16,Lys24,Leu27,Ser28]-Glucagon], the EC50 on glucagon receptor is 49 pM. The “Chemical stability [Purity loss/14 days 37 C.]” value in data set [1] amounted to 7.6%.

For the molecule `CC(C)C[C@H](NC(=O)[C@H](Cc1c[nH]c2ccccc12)NC(=O)[C@H](CCCCNC(=O)CC[C@H](NC(=O)CC[C@H](NC(=O)COCCOCCNC(=O)COCCOCCNC(=O)CC[C@H](NC(=O)CCCCCCCCCCCCCCCCC(=O)O)C(=O)O)C(=O)O)C(=O)O)NC(=O)[C@@H](NC(=O)[C@H](Cc1ccccc1)NC(=O)[C@H](CC(=O)O)NC(=O)[C@H](CCC(N)=O)NC(=O)[C@H](C)NC(=O)[C@H](CCCNC(=N)N)NC(=O)[C@H](CCCNC(=N)N)NC(=O)[C@@H](NC(=O)[C@H](CC(=O)O)NC(=O)[C@H](CC(C)C)NC(=O)[C@H](Cc1ccc(O)cc1)NC(=O)[C@H](CCCNC(=N)N)NC(=O)[C@H](CO)NC(=O)[C@H](Cc1ccc(O)cc1)NC(=O)[C@H](CC(=O)O)NC(=O)[C@H](CO)NC(=O)[C@@H](NC(=O)[C@H](Cc1ccccc1)NC(=O)[C@@H](NC(=O)CNC(=O)[C@H](CCC(N)=O)NC(=O)[C@H](CO)NC(=O)[C@@H](N)Cc1c[nH]cn1)[C@@H](C)O)[C@@H](C)O)[C@@H](C)O)C(C)C)C(=O)N[C@@H](CCC(=O)O)C(=O)N[C@@H](CO)C(=O)N[C@H](C(=O)O)[C@@H](C)O` [Example 44, N^ε24-[(4S)-4-carboxy-4-[[(4S)-4-carboxy-4-[[2-[2-[2-[[2-[2-[2-[[(4S)-4-carboxy-4-(17-carboxyheptadecanoylamino)butanoyl]amino]ethoxy]ethoxy]acetyl]amino]ethoxy]ethoxy]acetyl]amino]butanoyl]amino]butanoyl]-[Arg12,Thr16,Lys24,Glu27,Ser28]-Glucagon] (H-HSQGTFTSDYSRYLDTRRAQDFVK([γGlu-γGlu-AEEA-AEEA-γGlu-C18 diacid])WLEST-OH), on glucagon receptor, the EC50 came to 176 pM. In addition, in data set [1], the “Chemical stability [Purity loss/14 days 37 C.]” value is 10.5%.
